Laboratory results: ChEMBL document CHEMBL3046738, “Quinolactacide, a new quinolone insecticide from Penicillium citrinum Thom F 1539” (Biosci Biotechnol Biochem, 2005)

What was measured:
Myzus persicae = assay: Insecticidal activity against Myzus persicae (green peach aphid) infested two-leaf stage of cabbage plants assessed as mortality at 250 ppm applied as spray after 4 days relative to untreated control; type: functional; conditions: 96 h
[1] = Solubility of the compound in chloroform; type: physicochemical
[2] = Solubility of the compound in methanol; type: physicochemical
[3] = Solubility of the compound in DMSO; type: physicochemical
[4] = Solubility of the compound in ethyl acetate; type: physicochemical

Structure (SMILES): O=C1c2c([nH]c3ccccc3c2=O)-c2cccn21 [QUINOLACTACIDE]
- mortality at 250 ppm (Myzus persicae): 88%
- solubility [1]: Insoluble
- solubility [2]: Insoluble
- solubility [3]: soluble
- solubility [4]: Insoluble
